The values below come from patent US20230017045A1, “PYRIDINE AND PYRIMIDINE CARBOXYLATE HERBICIDES AND METHODS OF USE THEREOF” (Dow AgroSciences LLC, priority 2017, published 2023).

The structures appear in SMILES notation. Read-outs that look alike come from different tables or passages of the source.

The test has as its system test plant species. The test can be described thus: Post-emergent herbicidal activity test (greenhouse, foliar spray, visual growth reduction). To be noted: post-emergence, 336 h, 140 g ai/ha. Format: in vivo. In outline:
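Plants grown in greenhouse (15 h photoperiod, 23-29° C day/22-28° C night) to first or second true leaf stage were sprayed overhead with compound in acetone/water/isopropanol/DMSO/crop oil/X-77 carrier at 187 L/ha. Injury was scored visually after 14 d on a 0-100% scale versus solvent-blank and untreated controls.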

[1] abbreviates: ECHCG: barnyardgrass (Echinochloa crus-galli), 14 days after application, read-out: Visual Growth Reduction (%) 14 Days After Application, ECHCG.
Setting [2] is: IPOHE: ivy-leaf morning glory (Ipomoea hederacea), 14 days after application, read-out: Visual Growth Reduction (%) 14 Days After Application, IPOHE.
[3] abbreviates: KCHSC: kochia (Bassia scoparia), 14 days after application, read-out: Visual Growth Reduction (%) 14 Days After Application, KCHSC.
The mark [4] stands for this setting: ORYSA: rice (Oryza sativa), 14 days after application, read-out: Visual Growth Reduction (%) 14 Days After Application, ORYSA.
Setting [5] is: SETFA: giant foxtail (Setaria faberi), 14 days after application, read-out: Visual Growth Reduction (%) 14 Days After Application, SETFA.
Setting [6] is: SORVU: grain sorghum (Sorghum vulgare), 14 days after application, read-out: Visual Growth Reduction (%) 14 Days After Application, SORVU.
[7] abbreviates: STEME: common chickweed (Stellaria media), 14 days after application, read-out: Visual Growth Reduction (%) 14 Days After Application, STEME.
[8] abbreviates: TRZAS: wheat, spring (Triticum aestivum), 14 days after application, read-out: Visual Growth Reduction (%) 14 Days After Application, TRZAS.
Where [9] appears, read: blackgrass (Alopecurus myosuroides), 14 Days After Application, read-out: Visual Growth Reduction (%) ALOMY.
[10] abbreviates: canada thistle (Cirsium arvense), 14 Days After Application, read-out: Visual Growth Reduction (%) CIRAR.
Where [11] appears, read: crabgrass (Digitaria sanguinalis), 14 Days After Application, read-out: Visual Growth Reduction (%) DIGSA.
The mark [12] stands for this setting: lambsquarters (Chenopodium album), 14 Days After Application, read-out: Visual Growth Reduction (%) CHEAL.
Where [13] appears, read: redroot pigweed (Amaranthus retroflexus), 14 Days After Application, read-out: Visual Growth Reduction (%) AMARE.
[14] abbreviates: wild oat (Avena fatua), 14 Days After Application, read-out: Visual Growth Reduction (%) AVEFA.
Setting [15] is: yellow nutsedge (Cyperus esculentus), 14 Days After Application, read-out: Visual Growth Reduction (%) CYPES.

As to `COC(=O)c1cc2c(c(-c3ccc(Cl)c(C(=O)OC)n3)c1)OC(F)(F)O2` [F245, Methyl 3-chloro-6-(2,2-difluoro-6-(methoxycarbonyl)benzo[d][1,3]dioxol-4-yl)picolinate], the pest or weed control at 140 g/ha is, setting by setting: under setting [1], 0 to 29%; under setting [2], 85 to 94%; under setting [3], 0 to 29%; under setting [4], 0 to 29%; under setting [5], 0 to 29%; under setting [6], 75 to 84%. The pest or weed control at 140 g/ha by setting is: under setting [7], 0 to 29%; under setting [8], 0 to 29%; under setting [9], 0 to 29%; under setting [10], 0 to 29%; under setting [11], 0 to 29%; under setting [12], 85 to 94%. The pest or weed control at 140 g/ha fell in the range of 0 to 29% under setting [13], 0 to 29% under setting [14] and 45 to 59% under setting [15].
For the compound `COC(=O)c1nc(-c2cc(F)c(C(F)(F)F)cc2Cl)c(Cl)cc1Cl` [F246, Methyl 3,5-dichloro-6-(2-chloro-5-fluoro-4-(trifluoromethyl)phenyl)picolinate], the pest or weed control at 140 g/ha under setting [1] was in the range of 0 to 29%; the pest or weed control at 140 g/ha under setting [2] was in the range of 95 to 100%; the pest or weed control at 140 g/ha under setting [3] lay in the range of 75 to 84%; the pest or weed control at 140 g/ha under setting [4] was 0 to 29%; the pest or weed control at 140 g/ha under setting [5] is 75 to 84%; the pest or weed control at 140 g/ha under setting [6] fell in the range of 95 to 100%. Also, the pest or weed control at 140 g/ha was in the range of 0 to 29% under setting [7]; 0 to 29% under setting [8]; 45 to 59% under setting [9]; 75 to 84% under setting [10]; 85 to 94% under setting [11]; 95 to 100% under setting [12]. Also, the pest or weed control at 140 g/ha lay in the range of 95 to 100% under setting [13], 0 to 29% under setting [14] and 60 to 74% under setting [15].
Consider `COC(=O)c1nc(-c2ccc(N)cc2)c(F)cc1Cl` [F247, Methyl 6-(4-aminophenyl)-3-chloro-5-fluoropicolinate], for which the pest or weed control at 140 g/ha lay in the range of 0 to 29% under setting [1]; 0 to 29% under setting [2]; 0 to 29% under setting [3]; 0 to 29% under setting [4]; 0 to 29% under setting [5]; 0 to 29% under setting [6]. Besides, the pest or weed control at 140 g/ha reads like this: under setting [7], 0 to 29%; under setting [8], 0 to 29%; under setting [9], 0 to 29%; under setting [10], 0 to 29%; under setting [11], 0 to 29%; under setting [12], 60 to 74%. The pest or weed control at 140 g/ha runs as follows: under setting [13], 0 to 29%; under setting [14], 0 to 29%; under setting [15], 0 to 29%.
For `COC(=O)c1nc(-c2ccc(SC)cc2)c(F)cc1Cl` [F248, Methyl 3-chloro-5-fluoro-6-(4-(methylthio)phenyl) picolinate], the pest or weed control at 140 g/ha is 0 to 29% under setting [1]; 30 to 44% under setting [2]; 0 to 29% under setting [3]; 0 to 29% under setting [4]; 0 to 29% under setting [5]; 0 to 29% under setting [6]. The pest or weed control at 140 g/ha by setting is: under setting [7], 0 to 29%; under setting [8], 0 to 29%; under setting [9], 0 to 29%; under setting [10], 0 to 29%; under setting [11], 60 to 74%; under setting [12], 0 to 29%. The pest or weed control at 140 g/ha is, setting by setting: under setting [13], 0 to 29%; under setting [14], 0 to 29%; under setting [15], 0 to 29%.
As to `COC(=O)c1nc(-c2ccc(C)cc2)c(F)cc1Cl` [F249, Methyl 3-chloro-5-fluoro-6-(p-tolyl)picolinate], the pest or weed control at 140 g/ha reads like this: under setting [1], 0 to 29%; under setting [2], 0 to 29%; under setting [3], 0 to 29%; under setting [4], 0 to 29%; under setting [5], 0 to 29%; under setting [6], 0 to 29%. Besides, the pest or weed control at 140 g/ha lay within 0 to 29% under setting [7]; 0 to 29% under setting [8]; 0 to 29% under setting [9]; 0 to 29% under setting [10]; 0 to 29% under setting [11]; 60 to 74% under setting [12]. The pest or weed control at 140 g/ha by setting is: under setting [13], 0 to 29%; under setting [14], 0 to 29%; under setting [15], 0 to 29%.
On to `COC(=O)c1nc(-c2c(C)cc(C(F)(F)F)cc2Cl)ccc1Cl` [F250, Methyl 3-chloro-6-(2-chloro-6-methyl-4-(trifluoromethyl)phenyl) picolinate], for which the pest or weed control at 140 g/ha runs as follows: under setting [1], 0 to 29%; under setting [2], 95 to 100%; under setting [3], 0 to 29%; under setting [4], 0 to 29%; under setting [5], 45 to 59%; under setting [6], 85 to 94%. Also, the pest or weed control at 140 g/ha was 0 to 29% under setting [7]; 45 to 59% under setting [8]; 0 to 29% under setting [9]; 60 to 74% under setting [10]; 85 to 94% under setting [11]; 75 to 84% under setting [12]. In addition, the pest or weed control at 140 g/ha runs as follows: under setting [13], 0 to 29%; under setting [14], 0 to 29%; under setting [15], 0 to 29%.
With `C#Cc1cc(-c2nc(C(=O)OC)c(Cl)cc2F)c(Cl)cc1C(F)(F)F` [F251, Methyl 3-chloro-6-(2-chloro-5-ethynyl-4-(trifluoromethyl)phenyl)-5-yl) picolinate], the pest or weed control at 140 g/ha reads like this: under setting [1], 0 to 29%; under setting [2], 95 to 100%; under setting [3], 60 to 74%; under setting [4], 0 to 29%; under setting [5], 85 to 94%; under setting [6], 85 to 94%. Also, the pest or weed control at 140 g/ha fell in the range of 0 to 29% under setting [7]; 0 to 29% under setting [8]; 0 to 29% under setting [9]; 85 to 94% under setting [10]; 75 to 84% under setting [11]; 95 to 100% under setting [12]. Also, the pest or weed control at 140 g/ha fell in the range of 85 to 94% under setting [13], 0 to 29% under setting [14] and 0 to 29% under setting [15].
Regarding `O=C(O)c1nc(-c2ccc(C(F)(F)F)cc2Cl)ccc1[N+](=O)[O-]` [F252, 6-(2-Chloro-4-(trifluoromethyl)phenyl)-3-nitropicolinic acid], the pest or weed control at 140 g/ha by setting is: under setting [1], 0 to 29%; under setting [2], 30 to 44%; under setting [3], 0 to 29%; under setting [4], 0 to 29%; under setting [5], 0 to 29%; under setting [6], 45 to 59%. Further, the pest or weed control at 140 g/ha by setting is: under setting [7], 0 to 29%; under setting [8], 0 to 29%; under setting [9], 0 to 29%; under setting [10], 0 to 29%; under setting [11], 30 to 44%; under setting [12], 60 to 74%. Besides, the pest or weed control at 140 g/ha fell in the range of 0 to 29% under setting [13], 0 to 29% under setting [14] and 0 to 29% under setting [15].
`COC(=O)c1nc(-c2ccc(C(F)F)c(F)c2OC)c(F)cc1Cl` [F253, methyl 3-chloro-6-(4-(difluoromethyl)-3-fluoro-2-methoxyphenyl)-5-fluoropicolinate]: the pest or weed control at 140 g/ha was in the range of 60 to 74% under setting [1]; 95 to 100% under setting [2]; 95 to 100% under setting [3]; 0 to 29% under setting [4]; 0 to 29% under setting [5]; 45 to 59% under setting [6]. Further, the pest or weed control at 140 g/ha by setting is: under setting [7], 0 to 29%; under setting [8], 0 to 29%; under setting [9], 0 to 29%; under setting [10], 95 to 100%; under setting [11], 0 to 29%; under setting [12], 95 to 100%. The pest or weed control at 140 g/ha reads like this: under setting [13], 95 to 100%; under setting [14], 0 to 29%; under setting [15], 0 to 29%.
